Test results from US5986103A, “2-alkyl-1H-imidazole-5-carboxylic acids” (Hoechst Marion Roussel, priority 1995, dated 1999).
pIC50: −log10 of the molar value.

How the values were obtained:
Endothelin B receptor = biological target: T1, Endothelin B receptor (Rattus norvegicus, UniProt P21451); experiment: Affinity for the Endothelin B receptor: displacement of 125I endothelin from rat cortex plus cerebellum membrane preparation; assay type: binding; conditions: rat rear cortex plus cerebellum membranes, 25° C. for 60 minutes, pH 7.4, read-out: Endothelin B receptor IC50 in nanomoles
T1 construct: A membrane preparation is prepared from the rear cortex plus the cerebellum of a rat; from tissue; host or cells: rat rear cortex plus cerebellum, membrane preparation
T1 sequence (P21451 27-442): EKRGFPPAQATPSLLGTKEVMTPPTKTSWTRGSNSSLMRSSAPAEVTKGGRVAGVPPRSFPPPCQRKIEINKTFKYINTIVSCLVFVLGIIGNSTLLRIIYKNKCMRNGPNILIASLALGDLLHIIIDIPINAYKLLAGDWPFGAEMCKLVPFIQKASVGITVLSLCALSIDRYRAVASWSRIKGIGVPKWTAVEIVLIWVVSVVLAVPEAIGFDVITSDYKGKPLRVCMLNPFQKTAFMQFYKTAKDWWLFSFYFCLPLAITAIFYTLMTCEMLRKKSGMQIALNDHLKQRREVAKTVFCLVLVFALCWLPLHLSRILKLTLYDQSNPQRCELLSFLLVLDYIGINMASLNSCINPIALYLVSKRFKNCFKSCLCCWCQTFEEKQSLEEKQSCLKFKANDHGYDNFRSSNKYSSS
Experimental: 2) Study of the Affinity for the Endothelin B Receptor
A membrane preparation is prepared from the rear cortex plus the cerebellum of a rat. The tissue is ground up in a POLYTRON in a 50 mM Tris buffer pH=7.4.
After 30 minutes at 250C (W.B.) the homogenate is centrifuged at 30,000 g for 15 minutes (2 centrifugations with intermediate take-up in the Tris buffer pH. 7.4).
The pellets are suspended in an incubation buffer (25 mM Tris, 5 microg/ml pepstatin A, 3 microg/ml aprotinin, 0.1 mM PMSF, 3mM EDTA, 1 mM EGTA pH 7.4).
(§1) 2 ml aliquoted fractions are distributed in hemolysis tubes and 125I endothelin (approximately 50,000 dpm/tube) and the product to be studied are added. (The product is first tested at 3×10^-5 M three times). When the tested product displaces more than 50% of the radioactivity specifically bound to the receptor, it is tested again according to a range of 7 concentrations in order to determine the concentration which inhibits by 50% the radioactivity specifically bound to the receptor. In this way the 50% inhibitory concentration is determined.
(§2) The non-specific bond is determined by the addition of endothelin at 10^-6 M (three times). After incubation at 25° C. for 60 minutes, replacing in a water-bath at 0° C. for 5 minutes, filtration under reduced pressure and rinsing with Tris buffer pH 7.4, the radioactivity is counted in the presence of scintillating Triton. […]

Endothelin A receptor = biological target: T2, Endothelin A receptor (Rattus norvegicus, UniProt P26684); experiment: Affinity for the Endothelin A receptor: displacement of 125I endothelin from rat heart (ventricles) membrane preparation; assay type: binding; conditions: rat heart (ventricles) membranes, 25° C. for 60 minutes, pH 7.4, read-out: Endothelin A receptor IC50 in nanomoles
T2 construct: A membrane preparation is prepared from the heart (ventricles) of a rat; from tissue; host or cells: rat heart ventricles, membrane preparation
T2 sequence (P26684 21-426): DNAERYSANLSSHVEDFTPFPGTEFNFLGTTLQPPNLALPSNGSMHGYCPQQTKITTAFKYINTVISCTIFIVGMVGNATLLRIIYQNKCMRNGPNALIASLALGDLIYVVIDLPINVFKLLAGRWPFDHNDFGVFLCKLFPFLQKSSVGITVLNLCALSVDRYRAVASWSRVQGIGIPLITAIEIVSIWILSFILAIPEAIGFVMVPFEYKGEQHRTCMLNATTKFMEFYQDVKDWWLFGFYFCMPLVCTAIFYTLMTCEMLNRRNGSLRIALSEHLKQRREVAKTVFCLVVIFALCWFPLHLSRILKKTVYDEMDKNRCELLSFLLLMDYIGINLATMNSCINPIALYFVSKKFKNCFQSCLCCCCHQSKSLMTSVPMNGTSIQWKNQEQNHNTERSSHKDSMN
Experimental: 1) Study of the Affinity for the Endothelin A Receptor
A membrane preparation is prepared from the heart (ventricles) of a rat. The tissue is ground up in a POLYTRON in a 50 mM Tris buffer pH=7.4.
After 30 minutes at 25° C. (W.B.) the homogenate is centrifuged at 30,000 g for 15 minutes (2 centrifugations with intermediate take-up in the Tris buffer pH. 7.4).
The pellets are suspended in an incubation buffer (25 mM Tris, 5 microg/ml pepstatin A, 3 microg/ml aprotinin, 0.1 mM PMSF, 3 mM EDTA, 1 mM EGTA pH 7.4).
as §1, with “^125 I” for “125I”, “of” for “of the”
as §2

Endothelin = experiment: Antagonistic activity of endothelin in a demedullated rat (inhibition of increase in arterial pressure induced by endothelin); assay type: in vivo, Male Sprague-Dawley rats; conditions: product 10 mg/kg injected (pudendal vein) 10 minutes before endothelin
Experimental: 3) Test for Antagonistic Activity of Endothelin in a Demedullated Rat
Male Sprague-Dawley rats (250 to 350 g) are anaesthetized (sodium pentobarbital 60 mg/kg injected by intraperitoneal route). The animal is placed under assisted respiration and a bilateral section of the vagus nerves is carried out. The rat is then demedullated.
The average arterial pressure is recorded with a heparin catheter (PE50) introduced into the carotid of the animal and connected via a pressure sensor and an amplifier to a recorder (Gould pressure processor). A catheter is implanted in the pudendal vein in order to allow injection of the molecules to be studied. After a stabilization period (about 15 minutes), the product or the solvent is injected 10 minutes before a range of increasing doses of endothelin which are injected every 2 minutes (0.1-0.3-1-3-10 ug/kg).
The antagonistic activity of the products is estimated by the percentage inhibition of the increase in pressure induced by endothelin at doses of 3 and 10 ug/kg.

Question: With `CCCc1nc(Sc2ccc(OCC(=O)O)cc2)c(C(=O)O)n1Cc1cc2c(cc1Cl)OCO2` [Example 1, 4-((4-(carboxymethoxy)phenyl)thio)-1-((6-chloro-1,3-benzodioxol5-yl)methyl)2-propyl1H-imidazole5-carboxylic acid] as the compound, how does the pIC50 (Endothelin B receptor) read?
Answer: Its pIC50 is 7.05.

Question: And the pIC50 (Endothelin A receptor)?
Answer: Its pIC50 is 8.60.

Question: What about the “% inhibition of vasoconstriction Et1 3 μg/kg” value (Endothelin) of the same compound?
Answer: Its value is -52%.

Question: What about the “% inhibition of vasoconstriction Et1 10 μg/kg” value (Endothelin) of the same compound?
Answer: Its value is -50%.

Question: What does the source list for `CC(C)c1nc(Sc2ccc(CCC(=O)O)cc2)c(C(=O)O)n1Cc1cc2c(cc1Cl)OCO2` [Example 3, 4-((4-(2-carboxyethyl)phenyl)thio)-1-((6-chloro-1,3-benzodioxol-5-yl)methyl)-2-(1-methylethyl)-1H-imidazole-5-carboxylic acid]?
Answer: pIC50 (Endothelin B receptor): 7.11; pIC50 (Endothelin A receptor): 8.60; % inhibition of vasoconstriction Et1 3 μg/kg (Endothelin): +7%; % inhibition of vasoconstriction Et1 10 μg/kg (Endothelin): -31%
